From ChEMBL document CHEMBL1133690, “Discovery of a potent, orally bioavailable beta(3) adrenergic receptor agonist, (R)-N-[4-[2-[[2-hydroxy-2-(3-pyridinyl)ethyl]amino]ethyl]phenyl]-4-[4 -[4-(trifluoromethyl)phenyl]thiazol-2-yl]benzenesulfonamide” (J Med Chem, 2000)

Experiments:
[1] = Oral bioavailability in dog; format: ADME, organism-based, Canis lupus familiaris; details: in vivo
[2] = Plasma clearance was measured in dog; format: ADME, organism-based, Canis lupus familiaris; details: read-out: Clp
[3] = target: T1, Beta-2 adrenergic receptor (Homo sapiens, UniProt P07550); test: In vitro functional efficacy in stimulating increase in cAMP in chinese hamster ovary (CHO) cells expressing the cloned human beta-2 receptor.; format: cell-based
Target sequence in this assay (P07550 whole entry): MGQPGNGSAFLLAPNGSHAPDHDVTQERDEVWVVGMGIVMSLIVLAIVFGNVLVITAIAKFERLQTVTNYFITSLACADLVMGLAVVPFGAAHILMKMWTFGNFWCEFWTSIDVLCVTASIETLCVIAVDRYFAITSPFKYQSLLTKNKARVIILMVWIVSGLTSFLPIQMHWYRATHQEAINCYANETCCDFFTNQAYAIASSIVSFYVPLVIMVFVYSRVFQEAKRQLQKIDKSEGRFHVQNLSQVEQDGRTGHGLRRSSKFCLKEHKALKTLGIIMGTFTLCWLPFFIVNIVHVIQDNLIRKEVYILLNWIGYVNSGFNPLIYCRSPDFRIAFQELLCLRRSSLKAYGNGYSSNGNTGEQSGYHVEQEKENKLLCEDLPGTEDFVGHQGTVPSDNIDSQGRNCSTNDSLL

Monkey = test: Effective dose for hyperglycerolemia producing increase in serum glycerol accompained by tachycardia in anesthetized rhesus monkeys; format: functional; details: Cercopithecidae, in Macaca mulatta
[4] = target: T2, Beta-1 adrenergic receptor (Homo sapiens, UniProt P08588); test: In vitro functional efficacy in stimulating increase in cAMP in chinese hamster ovary (CHO) cells expressing the cloned human beta-1 receptor.; format: cell-based
Target sequence in this assay (P08588 whole entry): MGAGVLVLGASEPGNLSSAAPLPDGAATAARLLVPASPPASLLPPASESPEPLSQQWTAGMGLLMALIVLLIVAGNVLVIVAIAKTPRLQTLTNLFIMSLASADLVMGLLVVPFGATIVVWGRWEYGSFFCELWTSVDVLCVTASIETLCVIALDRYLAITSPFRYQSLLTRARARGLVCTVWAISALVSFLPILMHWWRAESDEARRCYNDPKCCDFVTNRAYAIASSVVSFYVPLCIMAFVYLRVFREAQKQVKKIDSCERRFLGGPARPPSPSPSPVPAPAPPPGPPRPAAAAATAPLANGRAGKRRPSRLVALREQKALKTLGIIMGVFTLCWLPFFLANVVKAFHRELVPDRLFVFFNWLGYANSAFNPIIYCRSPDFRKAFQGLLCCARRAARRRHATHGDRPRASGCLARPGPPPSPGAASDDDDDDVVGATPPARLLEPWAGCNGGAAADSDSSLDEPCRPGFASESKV

[5] = Area under curve determined in dogs after oral administration of 10 mg/kg; format: ADME, organism-based, Canis lupus familiaris; set-up: dose 10 mg/kg, route oral; details: dog, in vivo
[6] = Half life was measured in dog; format: ADME, organism-based, Canis lupus familiaris; details: in vivo
[7] = Volume distribution (Vdss) was measured in dog; format: ADME, organism-based, Canis lupus familiaris; details: in vivo, read-out: Vdss
[8] = Area under curve determined in dogs after intravenous administration of 3 mg/kg; format: ADME, organism-based, Canis lupus familiaris; set-up: dose 3 mg/kg, route intravenous; details: dog, in vivo
[9] = target: T3, Beta-3 adrenergic receptor (Homo sapiens, UniProt P13945); format: cell-based, CHO
Target sequence in this assay (P13945 whole entry): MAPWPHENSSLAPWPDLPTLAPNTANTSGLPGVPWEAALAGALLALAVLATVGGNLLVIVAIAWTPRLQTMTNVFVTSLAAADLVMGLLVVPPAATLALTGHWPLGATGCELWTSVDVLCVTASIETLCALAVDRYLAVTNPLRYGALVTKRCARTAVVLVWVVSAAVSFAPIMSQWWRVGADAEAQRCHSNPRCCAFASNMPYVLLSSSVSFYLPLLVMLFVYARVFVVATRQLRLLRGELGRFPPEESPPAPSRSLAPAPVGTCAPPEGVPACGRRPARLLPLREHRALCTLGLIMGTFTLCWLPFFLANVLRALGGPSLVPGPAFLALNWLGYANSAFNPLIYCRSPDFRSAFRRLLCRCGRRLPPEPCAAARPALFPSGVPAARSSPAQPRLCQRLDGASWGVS

[10] = Oral bioavailability in rat (dose 10 mg/kg p.o. and 3 mg/kg i.v.); format: ADME, organism-based; details: in vivo
[11] = target: T2, Beta-1 adrenergic receptor; test: Agonistic efficacy at human beta 1 adrenergic receptor was assessed from adenylyl cyclase activation given as % of the maximum stimulation with isoproterenol at 10 uM; format: functional
Target sequence in this assay (P08588 whole entry, looked up): as the sequence (P08588 whole entry) above

[12] = target: T3, Beta-3 adrenergic receptor; test: Agonistic efficacy at human beta 3 adrenergic receptor as percent adenylyl cyclase activation relative to isoproterenol; format: functional
Target sequence in this assay (P13945 whole entry, looked up): as the sequence (P13945 whole entry) above

[13] = target: T1, Beta-2 adrenergic receptor; test: biochemical
Target sequence in this assay (P07550 whole entry): as the sequence (P07550 whole entry) above
Description: Binding affinity was evaluated on chinese hamster ovary (CHO) cells expressing the cloned human beta-2 adrenergic receptor in the presence of [125I]- iodocyanopindolol.

[14] = target: T3, Beta-3 adrenergic receptor; test: In vitro functional efficacy as increased cAMP in chinese hamster ovary (CHO) cells expressing human beta-3 receptor; format: cell-based
Target sequence in this assay (P13945 whole entry): as the sequence (P13945 whole entry) above

[15] = target: T2, Beta-1 adrenergic receptor; test: biochemical
Target sequence in this assay (P08588 whole entry): as the sequence (P08588 whole entry) above
Description: Binding affinity was evaluated on chinese hamster ovary (CHO) cells expressing the cloned human beta-1 adrenergic receptor in the presence of [125I]- iodocyanopindolol.

[16] = target: T1, Beta-2 adrenergic receptor; test: Agonistic efficacy at human beta 2 adrenergic receptor was assessed from adenylyl cyclase activation given as % of the maximum stimulation with isoproterenol; format: functional
Target sequence in this assay (P07550 whole entry, looked up): as the sequence (P07550 whole entry) above

[17] = Volume of distribution (Vdss) was measured in dog; format: ADME, organism-based, Canis lupus familiaris; details: in vivo, read-out: Vdss

Row | bioavailability [1] [%] | clearance [2] [mL/min/kg] | EC50 [3] [nM] | EC50 [4] [nM] | AUC [5] [ng·h/mL] | half-life [6] [h] | Vd [7] [L/kg] | AUC [8] [ng·h/mL] | IC50 [9] [nM] | bioavailability [10] [%] | ACT [11] [%] | ACT [12] [%] | IC50 [13] [nM] | EC50 [14] [nM] | IC50 [15] [nM] | ACT [16] [%] | Vd [17] [L/kg] | SMILES | ED50 (Monkey) [mg/kg]
1 | 38 | 26.8 | 2400 | 4800 | 2270 | 13.5 | 31.3 | 1930 | 46 | 17 | 24 | 94 |  |  |  |  |  | O=S(=O)(Nc1ccc(CCNC[C@H](O)c2cccnc2)cc1)c1ccc(-c2nc(-c3ccc(C(F)(F)F)cc3)cs2)cc1 | 0.26
2 | 27 | 20.5 |  |  | 2230 | 8 | 14.1 | 2470 |  |  | 20 | 100 | 5000 | 6.3 | 2000 |  |  | O=S(=O)(Nc1ccc(CCNC[C@H](O)c2cccnc2)cc1)c1ccc(-c2nc(-c3cc(F)c(F)c(F)c3)cs2)cc1 | 
3 | 53 | 14.3 | 1400 | 2700 | 6280 | 10.3 | 12.8 | 3530 | 30 | 7 | 24 | 93 | 1200 | 4.3 | 8400 | 18 |  | O=S(=O)(Nc1ccc(CCNC[C@H](O)c2cccnc2)cc1)c1ccc(-c2nc(-c3ccc(OC(F)(F)F)cc3)cs2)cc1 | 0.14
4 |  |  |  |  |  |  |  |  |  |  | 7 | 87 | 2600 | 19 | 2500 |  |  | O=S(=O)(Nc1ccc(CCNC[C@H](O)c2cccnc2)cc1)c1ccc(-c2nc(-c3ccc(F)cc3F)cs2)cc1 | 
5 |  |  |  |  |  |  |  |  |  |  | 17 | 100 | 980 | 6.9 | 1800 |  |  | O=S(=O)(Nc1ccc(CCNC[C@H](O)c2cccnc2)cc1)c1ccc(-c2nc(-c3cccc(C(F)(F)F)c3)cs2)cc1 | 
6 |  |  |  |  |  |  |  |  |  |  |  | 82 | 1800 | 53 | 1900 |  |  | O=S(=O)(Nc1ccc(CCNC[C@H](O)c2cccnc2)cc1)c1ccc(-c2nc(-c3ccccc3C(F)(F)F)cs2)cc1 | 
7 | 36 | 29.3 | 1800 | 2600 | 2070 | 7.5 |  | 1720 | 20 |  |  | 92 | 1700 | 7.1 | 1700 | 12 | 19 | O=S(=O)(Nc1ccc(CCNC[C@H](O)c2cccnc2)cc1)c1ccc(-c2nc(-c3ccc(F)c(F)c3)cs2)cc1 | 

Row | SMILES | bioavailability [1] [%] | clearance [2] [mL/min/kg] | EC50 [3] [nM] | EC50 [4] [nM] | AUC [5] [ng·h/mL] | half-life [6] [h] | Vd [7] [L/kg] | AUC [8] [ng·h/mL] | IC50 [9] [nM] | bioavailability [10] [%] | ACT [11] [%] | ACT [12] [%] | IC50 [13] [nM] | EC50 [14] [nM] | IC50 [15] [nM] | ACT [16] [%] | Vd [17] [L/kg] | ED50 (Monkey) [mg/kg]
8 | O=S(=O)(Nc1ccc(CCNC[C@H](O)c2cccnc2)cc1)c1ccc(-c2nc(-c3cccc(F)c3F)cs2)cc1 |  |  |  |  |  |  |  |  |  |  | 6 | 99 | 760 | 7.6 | 2600 |  |  | 
